Source: ChEMBL document CHEMBL4270566, “New aziridine-based inhibitors of cathepsin L-like cysteine proteases with selectivity for the Leishmania cysteine protease LmCPB2.8” (Eur J Med Chem, 2018)
The source made the active and inactive calls. The calls are words filed in the database; no cut-off is given here.

Experiments:
Procathepsin L [1] = target: T1, Procathepsin L (Homo sapiens, UniProt P07711); experiment: Inhibition of human cathepsin-L at 20 uM using Z-Phe-Arg-AMC as substrate by fluorometric assay relative to control
Target sequence in this assay (P07711 114-333 limits assumed): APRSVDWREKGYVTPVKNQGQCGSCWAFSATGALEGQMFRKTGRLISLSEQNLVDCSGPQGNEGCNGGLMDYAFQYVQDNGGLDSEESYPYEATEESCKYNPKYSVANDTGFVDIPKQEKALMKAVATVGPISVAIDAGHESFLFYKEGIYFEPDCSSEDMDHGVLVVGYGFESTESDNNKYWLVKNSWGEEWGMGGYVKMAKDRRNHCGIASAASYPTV

Cruzipain = Cruzipain (Trypanosoma cruzi, UniProt P25779); experiment: Inhibition of Trypanosoma cruzi cruzain using Z-Phe-Arg-AMC as substrate by fluorometric assay
Cruzipain, sequence (P25779 whole entry): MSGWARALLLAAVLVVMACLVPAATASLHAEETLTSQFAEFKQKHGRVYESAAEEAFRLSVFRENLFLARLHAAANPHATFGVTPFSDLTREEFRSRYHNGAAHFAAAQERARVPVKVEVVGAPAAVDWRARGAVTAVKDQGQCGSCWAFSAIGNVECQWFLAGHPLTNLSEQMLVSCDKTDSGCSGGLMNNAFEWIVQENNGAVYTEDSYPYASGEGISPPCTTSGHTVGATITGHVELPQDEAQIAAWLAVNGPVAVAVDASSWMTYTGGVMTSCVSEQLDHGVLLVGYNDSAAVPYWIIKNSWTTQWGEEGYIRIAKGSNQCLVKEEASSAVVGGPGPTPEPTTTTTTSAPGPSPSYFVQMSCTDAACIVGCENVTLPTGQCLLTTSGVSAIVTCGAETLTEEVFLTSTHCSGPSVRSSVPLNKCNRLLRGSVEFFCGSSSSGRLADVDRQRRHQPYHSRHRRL

[2] = target: T2, Falcipain 2 (Plasmodium falciparum) (UniProt Q9N6S8); experiment: Inhibition of Plasmodium falciparum falcipain 2 at 20 uM using Z-Phe-Arg-AMC as substrate by fluorometric assay relative to control
T2 sequence (whole entry): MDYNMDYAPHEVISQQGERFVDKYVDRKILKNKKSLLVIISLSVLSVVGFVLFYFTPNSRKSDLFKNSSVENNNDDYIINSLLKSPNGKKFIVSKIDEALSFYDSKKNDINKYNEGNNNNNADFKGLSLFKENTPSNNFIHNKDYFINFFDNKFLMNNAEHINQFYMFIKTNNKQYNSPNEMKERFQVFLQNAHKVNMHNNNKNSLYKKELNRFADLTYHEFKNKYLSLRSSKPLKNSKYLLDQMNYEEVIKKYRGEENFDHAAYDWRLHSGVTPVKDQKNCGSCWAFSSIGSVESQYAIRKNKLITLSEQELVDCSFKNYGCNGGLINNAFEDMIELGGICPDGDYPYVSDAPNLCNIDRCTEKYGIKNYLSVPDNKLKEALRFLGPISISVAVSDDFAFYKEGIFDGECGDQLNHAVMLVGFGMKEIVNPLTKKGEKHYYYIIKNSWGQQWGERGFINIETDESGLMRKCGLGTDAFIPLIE

[3] = Inhibition of Leishmania mexicana cathepsin L-like protease CPB2.8 using Z-Phe-Arg-AMC as substrate by fluorometric assay
Rhodesain = Rhodesain (Trypanosoma brucei rhodesiense, UniProt Q95PM0); experiment: Inhibition of Trypanosoma brucei rhodesiense rhodesain using Z-Phe-Arg-AMC as substrate by fluorometric assay
Rhodesain, sequence (Q95PM0 whole entry): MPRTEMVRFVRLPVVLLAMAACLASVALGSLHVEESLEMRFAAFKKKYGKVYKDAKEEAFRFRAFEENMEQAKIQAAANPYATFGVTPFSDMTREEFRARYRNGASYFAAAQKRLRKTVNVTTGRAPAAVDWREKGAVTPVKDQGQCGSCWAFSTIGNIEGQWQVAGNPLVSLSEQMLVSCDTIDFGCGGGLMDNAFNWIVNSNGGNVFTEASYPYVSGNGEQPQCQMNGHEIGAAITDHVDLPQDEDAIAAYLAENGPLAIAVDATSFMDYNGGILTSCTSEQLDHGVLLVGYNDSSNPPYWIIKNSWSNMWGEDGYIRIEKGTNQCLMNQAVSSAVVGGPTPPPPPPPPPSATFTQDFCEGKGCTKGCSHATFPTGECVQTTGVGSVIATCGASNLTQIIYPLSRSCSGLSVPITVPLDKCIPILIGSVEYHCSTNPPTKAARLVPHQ

[4] = target: Cruzipain (Trypanosoma cruzi) (UniProt P25779); experiment: Inhibition of Trypanosoma cruzi cruzain at 20 uM using Z-Phe-Arg-AMC as substrate by fluorometric assay relative to control
Cruzipain (Trypanosoma cruzi), sequence (P25779 123-467 limits assumed): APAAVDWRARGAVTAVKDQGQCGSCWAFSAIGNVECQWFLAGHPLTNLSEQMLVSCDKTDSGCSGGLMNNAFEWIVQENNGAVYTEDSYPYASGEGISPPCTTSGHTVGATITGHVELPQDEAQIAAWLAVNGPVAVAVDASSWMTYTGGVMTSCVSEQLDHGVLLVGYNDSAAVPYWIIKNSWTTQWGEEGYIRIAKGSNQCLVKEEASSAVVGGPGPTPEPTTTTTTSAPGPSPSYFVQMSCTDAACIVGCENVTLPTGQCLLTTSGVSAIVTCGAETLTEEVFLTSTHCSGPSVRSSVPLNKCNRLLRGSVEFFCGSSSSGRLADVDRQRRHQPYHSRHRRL

Cathepsin B = Cathepsin B (Homo sapiens, UniProt P07858); experiment: Inhibition of human cathepsin-B at 20 uM using Z-Phe-Arg-AMC as substrate by fluorometric assay relative to control
Leishmania mexicana [5] = experiment: Inhibition of Leishmania mexicana cathepsin L-like protease CPB2.8 at 20 uM using Z-Phe-Arg-AMC as substrate by fluorometric assay relative to control
[6] = target: Rhodesain (Trypanosoma brucei rhodesiense) (UniProt Q95PM0); experiment: Inhibition of Trypanosoma brucei rhodesiense rhodesain at 20 uM using Z-Phe-Arg-AMC as substrate by fluorometric assay relative to control
Rhodesain (Trypanosoma brucei rhodesiense), sequence (Q95PM0 1-450): as the sequence (Q95PM0 whole entry) above

Procathepsin L [7] = target: T1, Procathepsin L; experiment: Inhibition of human cathepsin-L using Z-Phe-Arg-AMC as substrate by fluorometric assay
Target sequence in this assay (P07711 whole entry): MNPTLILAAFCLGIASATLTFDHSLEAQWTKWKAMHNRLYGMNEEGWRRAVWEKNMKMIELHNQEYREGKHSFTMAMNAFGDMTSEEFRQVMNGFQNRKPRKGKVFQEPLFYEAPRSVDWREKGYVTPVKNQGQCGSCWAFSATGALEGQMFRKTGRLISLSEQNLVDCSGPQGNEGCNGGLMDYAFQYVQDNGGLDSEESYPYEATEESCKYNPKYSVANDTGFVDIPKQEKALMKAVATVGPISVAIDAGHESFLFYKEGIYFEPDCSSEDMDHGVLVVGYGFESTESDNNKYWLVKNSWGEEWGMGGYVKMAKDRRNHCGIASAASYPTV

Leishmania major [8] = experiment: Antileishmanial activity against Leishmania major promastigotes at 20 uM; format: functional, organism-based
Falcipain 2 = target: T3, Falcipain 2 (Plasmodium falciparum, UniProt Q9N6S8); experiment: Inhibition of Plasmodium falciparum falcipain 2 using Z-Phe-Arg-AMC as substrate by fluorometric assay
T3 sequence (Q9N6S8 whole entry): T2 sequence (whole entry)

Leishmania major [9] = experiment: Antileishmanial activity against Leishmania major promastigotes; format: functional, organism-based
Leishmania major [10] = experiment: Antileishmanial activity against luciferase-fused Leishmania major amastigotes infected in BMDM after 24 hrs by luminescence assay; format: functional, organism-based
[11] = target: Rhodesain (Trypanosoma brucei rhodesiense) (UniProt Q95PM0); experiment: Inhibition of Trypanosoma brucei rhodesiense rhodesain assessed as second order inactivation rate constant using Z-Phe-Arg-AMC as substrate by fluorometric assay
[12] = target: T2, Falcipain 2 (Plasmodium falciparum); experiment: Inhibition of Plasmodium falciparum falcipain 2 assessed as second order inactivation rate constant using Z-Phe-Arg-AMC as substrate by fluorometric assay
Leishmania mexicana [13] = experiment: Inhibition of Leishmania mexicana cathepsin L-like protease CPB2.8 assessed as second order inactivation rate constant using Z-Phe-Arg-AMC as substrate by fluorometric assay
Procathepsin L [14] = target: T1, Procathepsin L; experiment: Inhibition of human cathepsin-L assessed as second order inactivation rate constant using Z-Phe-Arg-AMC as substrate by fluorometric assay
Target sequence in this assay (P07711 114-333 limits assumed): as the sequence (P07711 114-333 limits assumed) above

[15] = target: Cruzipain (Trypanosoma cruzi) (UniProt P25779); experiment: Inhibition of Trypanosoma cruzi cruzain assessed as second order inactivation rate constant using Z-Phe-Arg-AMC as substrate by fluorometric assay
J774 = experiment: Cytotoxicity against mouse J774 cells; format: cell-based

CC(C)C[C@H](NC(=O)OC(C)(C)C)C(=O)N1CCC[C@@H]1C(=O)N1C(C(=O)OCc2ccccc2)C1C(=O)OCc1ccccc1 (mixture of isomers)
inhibition (Procathepsin L [1]): > 50%
Ki (Cruzipain): 1800 nM
inhibition [2]: > 50%
Ki [3]: 2800 nM
Ki (Rhodesain): 1500 nM
inhibition [4]: > 50%
inhibition (Cathepsin B): inactive
inhibition (Leishmania mexicana [5]): > 50%
inhibition [6]: > 50%
Ki (Procathepsin L [7]): 12000 nM

CC(C)C[C@H](NC(=O)OC(C)(C)C)C(=O)N1CCC[C@@H]1C(=O)N1C(C(=O)OCc2ccccc2)C1C(=O)OCc1ccc2ccccc2c1 (mixture of isomers)
inhibition (Procathepsin L [1]): < 50%
inhibition [2]: < 50%
Ki [3]: 800 nM
inhibition [4]: < 50%
inhibition (Cathepsin B): inactive
inhibition (Leishmania mexicana [5]): > 50%
inhibition [6]: < 50%

CC(C)C[C@H](NC(=O)OC(C)(C)C)C(=O)N1CCC[C@@H]1C(=O)N1C(C(=O)OCC2CCCCC2)C1C(=O)OCC1CCCCC1 (mixture of isomers)
inhibition (Procathepsin L [1]): < 50%
inhibition [2]: < 50%
Ki [3]: 770 nM
inhibition [4]: < 50%
inhibition (Cathepsin B): inactive
inhibition (Leishmania mexicana [5]): > 50%
inhibition [6]: < 50%

CC(C)C[C@@H](NC(=O)OC(C)(C)C)C(=O)N1CCC[C@@H]1C(=O)N1[C@H](C(=O)OCc2ccccc2)[C@H]1C(=O)OCc1ccccc1
Activity (Leishmania major [8]): inactive
inhibition (Procathepsin L [1]): inactive
inhibition [2]: inactive
inhibition (Cathepsin B): inactive

CC(C)C[C@H](NC(=O)OC(C)(C)C)C(=O)N1CCC[C@@H]1C(=O)N1C(C(=O)OCc2ccccc2)C1C(=O)OC(C)(C)C (mixture of isomers)
inhibition (Procathepsin L [1]): < 50%
inhibition [2]: < 50%
inhibition [4]: < 50%
inhibition (Cathepsin B): inactive
inhibition (Leishmania mexicana [5]): < 50%
inhibition [6]: < 50%

CC(C)C[C@H](NC(=O)OC(C)(C)C)C(=O)N1CCC[C@@H]1C(=O)N1C(C(=O)OCCc2ccccc2)C1C(=O)OCCc1ccccc1 (mixture of isomers)
inhibition (Procathepsin L [1]): < 50%
Ki (Cruzipain): 7700 nM
inhibition [2]: < 50%
Ki [3]: 1600 nM
inhibition [4]: > 50%
inhibition (Cathepsin B): inactive
inhibition (Leishmania mexicana [5]): > 50%
inhibition [6]: < 50%

CC(C)C[C@H](NC(=O)OC(C)(C)C)C(=O)N1CCC[C@@H]1C(=O)N1C(C(=O)OCc2ccccc2)C1C(=O)OCC1CCCCC1 (mixture of isomers)
inhibition (Procathepsin L [1]): < 50%
Ki (Cruzipain): 7600 nM
inhibition [2]: < 50%
Ki [3]: 1800 nM
inhibition [4]: > 50%
inhibition (Cathepsin B): inactive
inhibition (Leishmania mexicana [5]): > 50%
inhibition [6]: < 50%

CC(C)C[C@H](NC(=O)OC(C)(C)C)C(=O)N1CCC[C@@H]1C(=O)N1C(C(=O)O)C1C(=O)OC(C)(C)C (mixture of isomers)
inhibition (Procathepsin L [1]): < 50%
inhibition [2]: < 50%
inhibition [4]: < 50%
inhibition (Cathepsin B): inactive
inhibition (Leishmania mexicana [5]): < 50%
inhibition [6]: < 50%

CC(C)C[C@@H](NC(=O)OC(C)(C)C)C(=O)N1CCC[C@H]1C(=O)N1[C@H](C(=O)OCc2ccccc2)[C@H]1C(=O)OCc1ccccc1
Ki (Falcipain 2): 28300 nM
Ki (Cruzipain): 790 nM
Ki [3]: 2100 nM
EC50 (Leishmania major [9]): 35400 nM
inhibition (Cathepsin B): inactive
Ki (Procathepsin L [7]): 4000 nM
EC50 (Leishmania major [10]): 2700 nM

CCOC(=O)C1C(C(=O)O)N1C(=O)[C@H]1CCCN1C(=O)[C@H](CC(C)C)NC(=O)OC(C)(C)C (mixture of isomers)
inhibition (Procathepsin L [1]): < 50%
inhibition [2]: < 50%
inhibition [4]: < 50%
inhibition (Cathepsin B): inactive
inhibition (Leishmania mexicana [5]): < 50%
inhibition [6]: < 50%

CC(C)C[C@H](NC(=O)OC(C)(C)C)C(=O)N1CCC[C@@H]1C(=O)N1C(C(=O)O)C1C(=O)OCCc1ccccc1 (mixture of isomers)
Ki (Falcipain 2): 1260 nM
inhibition (Procathepsin L [1]): < 50%
K [11]: 2970 M⁻¹ s⁻¹
inhibition [2]: > 50%
Ki [3]: 440 nM
Ki (Rhodesain): 160 nM
inhibition [4]: < 50%
inhibition (Cathepsin B): inactive
K [12]: 185 M⁻¹ s⁻¹
inhibition (Leishmania mexicana [5]): > 50%
inhibition [6]: > 50%
K (Leishmania mexicana [13]): 3180 M⁻¹ s⁻¹

CC(C)C[C@H](NC(=O)OC(C)(C)C)C(=O)N1CCC[C@@H]1C(=O)N1C(C(=O)OCCCc2ccccc2)C1C(=O)OCCCc1ccccc1 (mixture of isomers)
inhibition (Procathepsin L [1]): < 50%
inhibition [2]: < 50%
Ki [3]: 900 nM
inhibition [4]: < 50%
inhibition (Cathepsin B): inactive
inhibition (Leishmania mexicana [5]): > 50%
inhibition [6]: < 50%

CC(C)C[C@@H](NC(=O)OC(C)(C)C)C(=O)N1CCC[C@H]1C(=O)N1[C@@H](C(=O)OCc2ccccc2)[C@@H]1C(=O)OCc1ccccc1
inhibition (Procathepsin L [1]): inactive
Ki (Cruzipain): 30900 nM
inhibition [2]: inactive
Ki [3]: 3400 nM
EC50 (Leishmania major [9]): 95000 nM
Ki (Rhodesain): 15200 nM
inhibition (Cathepsin B): inactive

CC(C)C[C@H](NC(=O)OC(C)(C)C)C(=O)N1CCC[C@H]1C(=O)N1[C@H](C(=O)OCc2ccccc2)[C@H]1C(=O)OCc1ccccc1
Activity (Leishmania major [8]): inactive
inhibition (Procathepsin L [1]): inactive
inhibition [2]: inactive
inhibition (Cathepsin B): inactive

CC(C)C[C@H](NC(=O)OC(C)(C)C)C(=O)N1CCC[C@@H]1C(=O)N1C(C(=O)O)C1C(=O)OCC1CCCCC1 (mixture of isomers)
Ki (Falcipain 2): 450 nM
inhibition (Procathepsin L [1]): > 50%
K [11]: 8230 M⁻¹ s⁻¹
Ki (Cruzipain): 710 nM
inhibition [2]: > 50%
Ki [3]: 1790 nM
Ki (Rhodesain): 120 nM
inhibition [4]: > 50%
inhibition (Cathepsin B): inactive
K [12]: 1280 M⁻¹ s⁻¹
inhibition (Leishmania mexicana [5]): > 50%
inhibition [6]: > 50%
Ki (Procathepsin L [7]): 7300 nM
K (Procathepsin L [14]): 232 M⁻¹ s⁻¹
K [15]: 5380 M⁻¹ s⁻¹
K (Leishmania mexicana [13]): 893 M⁻¹ s⁻¹

CC(C)[C@H](NC(=O)OC(C)(C)C)C(=O)N1CCC[C@@H]1C(=O)N1[C@@H](C(=O)OCc2ccccc2)[C@@H]1C(=O)OCc1ccccc1
EC50 (Leishmania major [9]): 34800 nM
EC50 (Leishmania major [10]): 2200 nM
Activity (J774): > 250 µM

CC[C@H](C)[C@H](NC(=O)OC(C)(C)C)C(=O)N1CCC[C@@H]1C(=O)N1[C@@H](C(=O)OCc2ccccc2)[C@@H]1C(=O)OCc1ccccc1
EC50 (Leishmania major [9]): 9800 nM
EC50 (Leishmania major [10]): 2000 nM
Activity (J774): > 250 µM

CC(C)C[C@H](NC(=O)OC(C)(C)C)C(=O)N1CCC[C@@H]1C(=O)N1[C@H](C(=O)OCc2ccccc2)[C@H]1C(=O)OCc1ccccc1
Ki (Falcipain 2): 43900 nM
Ki (Cruzipain): 900 nM
Ki [3]: 1700 nM
EC50 (Leishmania major [9]): 39600 nM
inhibition (Cathepsin B): inactive
Ki (Procathepsin L [7]): 6000 nM
EC50 (Leishmania major [10]): 2200 nM

CCOC(=O)C1C(C(=O)OCc2ccccc2)N1C(=O)[C@H]1CCCN1C(=O)[C@H](CC(C)C)NC(=O)OC(C)(C)C (mixture of isomers)
inhibition (Procathepsin L [1]): < 50%
inhibition [2]: < 50%
inhibition [4]: < 50%
inhibition (Cathepsin B): inactive
inhibition (Leishmania mexicana [5]): < 50%
inhibition [6]: < 50%

CC(C)C[C@H](NC(=O)OC(C)(C)C)C(=O)N1CCC[C@@H]1C(=O)N1C(C(=O)OCCCc2ccccc2)C1C(=O)OCc1ccccc1 (mixture of isomers)
inhibition (Procathepsin L [1]): < 50%
inhibition [2]: < 50%
Ki [3]: 1360 nM
inhibition [4]: < 50%
inhibition (Cathepsin B): inactive
inhibition (Leishmania mexicana [5]): > 50%
inhibition [6]: < 50%

CC(C)C[C@H](NC(=O)OC(C)(C)C)C(=O)N1CCC[C@@H]1C(=O)N1C(C(=O)OCCc2ccccc2)C1C(=O)OCc1ccccc1 (mixture of isomers)
inhibition (Procathepsin L [1]): < 50%
Ki (Cruzipain): 5500 nM
inhibition [2]: < 50%
Ki [3]: 1920 nM
inhibition [4]: > 50%
inhibition (Cathepsin B): inactive
inhibition (Leishmania mexicana [5]): > 50%
inhibition [6]: < 50%

CC(C)C[C@H](NC(=O)OC(C)(C)C)C(=O)N1CCC[C@@H]1C(=O)N1C(C(=O)O)C1C(=O)OCCCc1ccccc1 (mixture of isomers)
Ki (Falcipain 2): 28600 nM
inhibition (Procathepsin L [1]): < 50%
inhibition [2]: > 50%
inhibition [4]: < 50%
inhibition (Cathepsin B): inactive
K [12]: 55.8 M⁻¹ s⁻¹
inhibition (Leishmania mexicana [5]): < 50%
inhibition [6]: < 50%
